Patent US20250110108A1 (priority 2022, published 2025)

Conditions: in vivo

| Substance | concentration range in urine [ng/mL] | median concentration in urine [µg/L] | share of ΣAs in urine |
| --- | --- | --- | --- |
| Arsenic acid [As^V] | 0 to 12.1 | 1.12 |  |
| Arsenious acid [As^III] | 2.13 to 101 | 13.8 | 3.8-36.9% |
